Assay results reported in patent publication US20250282735A1, “BICYCLE COMPOUNDS AS TEAD INHIBITOR” (DONG-A ST CO., LTD., priority 2022, published 2025).

Legend:
Type in all cases: cell-based
NCI-H226 cells = assay: Proliferation assay (EdU incorporation), NCI-H226; settings: Homo sapiens, 72 h, YAP-driven NCI-H226 (NF2 mutation), 3 days with inhibitor, 1% serum
Experimental: (§1) The anti-proliferative activity of TEAD inhibitors was evaluated in cells with different properties for YAP; “YAP-driven” cells (MSTO-211H, NCI-H226) in which YAP located in the nucleus and “YAP-independent” cells (OCM1, NCI-H28) where YAP located in the cytoplasm. […] TEAD inhibitors were evaluated with cell lines with these YAP profiling and mutational status.
(§2) The next day, replace it with cell starvation medium containing 1% serum. After one day of growth in the starvation medium, the cells were incubated for 3 days with TEAD inhibitors in a concentration range of 0.01-10 μM. After 3 days, EdU (Invitrogen) at a concentration of 10 µM was added to the starvation medium and incubated for an additional 24 hours. After removing the starvation medium remaining in each well, wash the wells with PBS. Cells were fixed with 4% paraformaldehyde (Electron microscopy sciences) at room temperature for 20 minutes. After removing the fix solution remaining in each well, wash the wells with PBS and the cells were permeabilized for 40 minutes by adding 0.5% triton X-100 (Sigma Aldrich). After removing the permeabilization solution remaining in each well, the EdU labeling was performed according to the instructions of the manufacturer's instructions (Click-iT™ Cell Reaction Buffer Kit, Invitrogen). After the Click reaction for EdU labeling, nuclei were stained with […] (Thermo Scientific) for total cell count analysis. After plate preparation for detection, Image acquisition was performed using the ImageXpress Micro XLS. The acquired images were analyzed using MetaXpress software (molecular devices). Through this experimental method, it was possible to confirm the inhibitory activity of TEAD inhibitors by detection EdU incorporated into proliferating cells.
(§3) IC50 for cell proliferation inhibition activity are shown in the Table 2 below and designated within the following ranges. [+++: ≤0.1 μM, ++: >0.1 μM to ≤1 μM, +: >1 μM to ≤10μ, −: >10 μM]

MSTO-211H cells = assay: Proliferation assay (EdU incorporation), MSTO-211H; settings: Homo sapiens, 72 h, YAP-driven MSTO-211H (LATS1 mutation), 3 days with inhibitor, 1% serum
Experimental: as §1, §2, §3

[1] = tested on: TEAD reporter-containing human breast cancer cell line MCF7; assay: TEAD reporter (luciferase) assay; settings: TEAD reporter MCF7 cells, 24 hours treatment, 1% serum media
Procedure, shortened: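 Cells plated at 30,000/well overnight, then treated 24 h in 1% serum medium with 0.1% DMSO. CCK-8 viability read at 450 nm, then Dual-Glo luciferase luminescence; IC50 from non-linear regression of dose-response curves.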

IC50 (NCI-H226 cells) | IC50 [1] | SMILES | IC50 (MSTO-211H cells)
≤ 100 nM | 100 to 1000 nM | C=CC(=O)Nc1cnc2c(c1)c(/C=C/c1ccc(Cl)cc1)nn2C [Compound 31, (E)-N-(3-(4-Chlorostyryl)-1-methyl-1H-pyrazolo[3,4-b]pyridin-5-yl)acrylamide] | ≤ 100 nM
≤ 100 nM | ≤ 100 nM | C=CC(=O)Nc1cnc2c(c1)c(/C=C/C1CCC(F)(F)CC1)nn2C [Compound 30, (E)-N-(3-(2-(4,4-Difluorocyclohexyl)vinyl)-1-methyl-1H-pyrazolo[3,4-b]pyridin-5-yl)acrylamide] | 100 to 1000 nM
≤ 100 nM | 100 to 1000 nM | C=CC(=O)Nc1cnc2c(c1)c(-c1ccc(C(C)C)cc1)cn2C [Example 93, N-(3-(4-Isopropylphenyl)-1-methyl-1H-pyrrolo[2,3-b]pyridin-5-yl)acrylamide] | ≤ 100 nM
100 to 1000 nM | ≤ 100 nM | C=CC(=O)Nc1ccc2c(c1)c(/C=C/C1CCC(F)(F)CC1)cn2CC [Compound 25, (E)-N-(3-(2-(4,4-Difluorocyclohexyl)vinyl)-1-ethyl-1H-indol-5-yl)acrylamide] | ≤ 100 nM
≤ 100 nM | 1000 to 10000 nM | C=CC(=O)Nc1cnc2c(c1)c(-c1ccc(Cl)cc1)cn2C [Example 98, N-(3-(4-Chlorophenyl)-1-methyl-1H-pyrrolo[2,3-b]pyridin-5-yl)acrylamide] | ≤ 100 nM
≤ 100 nM | 100 to 1000 nM | C=CC(=O)Nc1cnc2c(c1)c(-c1ccc(Cl)c(F)c1)cn2C [Example 87, N-(3-(4-Chloro-3-fluorophenyl)-1-methyl-1H-pyrrolo[2,3-b]pyridin-5-yl)acrylamide] | ≤ 100 nM
≤ 100 nM | ≤ 100 nM | C=CC(=O)Nc1cnc2c(c1)c(-c1ccc(F)c(C(F)(F)F)c1)cn2C [Example 92, N-(3-(4-Fluoro-3-(trifluoromethyl)phenyl)-1-methyl-1H-pyrrolo[2,3-b]pyridin-5-yl)acrylamide] | ≤ 100 nM
≤ 100 nM | ≤ 100 nM | C=CC(=O)Nc1cnc2c(c1)c(CCc1ccc(F)cc1)cn2C [Example 63, N-(3-(4-Fluorophenethyl)-1-methyl-1H-pyrrolo[2,3-b]pyridin-5-yl)acrylamide] | ≤ 100 nM
≤ 100 nM | 100 to 1000 nM | C=CC(=O)Nc1ccc2c(c1)c(/C=C/c1ccc(Cl)cc1)cn2C(C)C [Compound 28, (E)-N-(3-(4-Chlorostyryl)-1-isopropyl-1H-indol-5-yl)acrylamide] | 100 to 1000 nM
≤ 100 nM | 100 to 1000 nM | C=CC(=O)Nc1cnc2c(c1)c(-c1ccc(F)c(Cl)c1)cn2C [Example 97, N-(3-(3-Chloro-4-fluorophenyl)-1-methyl-1H-pyrrolo[2,3-b]pyridin-5-yl)acrylamide] | ≤ 100 nM
≤ 100 nM | 100 to 1000 nM | C=CC(=O)Nc1cnc2c(c1)c(-c1ccc(CC)cc1)cn2C [Example 89, N-(3-(4-Ethylphenyl)-1-methyl-1H-pyrrolo[2,3-b]pyridin-5-yl)acrylamide] | ≤ 100 nM

The next lines start with the molecule.

SMILES | IC50 (NCI-H226 cells) | IC50 [1] | IC50 (MSTO-211H cells)
C=CC(=O)Nc1ccc2c(c1)c(/C=C/C1CCC(F)(F)CC1)nn2CC [Compound 3, (E)-N-(3-(2-(4,4-Difluorocyclohexyl)vinyl)-1-ethyl-1H-indazol-5-yl)acrylamide] | 100 to 1000 nM | ≤ 100 nM | ≤ 100 nM
C=CC(=O)Nc1ccc2c(c1)c(/C=C/c1ccc(Cl)cc1)nn2CC [Compound 4, (E)-N-(3-(4-Chlorostyryl)-1-ethyl-1H-indazol-5-yl)acrylamide] | ≤ 100 nM | > 10000 nM | ≤ 100 nM
C=CC(=O)Nc1cnc2c(c1)c(/C=C/C1CCC(F)(F)CC1)cn2C [Compound 15, (E)-N-(3-(2-(4,4-Difluorocyclohexyl)vinyl)-1-methyl-1H-pyrrolo[2,3-b]pyridin-5-yl)acrylamide] | ≤ 100 nM | ≤ 100 nM | ≤ 100 nM
C=CC(=O)Nc1ccc2c(c1)c(/C=C/c1ccc(F)cc1)cn2C [Compound 24, (E)-N-(3-(4-Fluorostyryl)-1-methyl-1H-indol-5-yl)acrylamide] | ≤ 100 nM | 100 to 1000 nM | 100 to 1000 nM
C=CC(=O)Nc1cnc2c(c1)c(/C=C/C1CCC(F)(F)CC1)cn2C(C)C [Compound 19, (E)-N-(3-(2-(4,4-Difluorocyclohexyl)vinyl)-1-isopropyl-1H-pyrrolo[2,3-b]pyridin-5-yl)acrylamide] | ≤ 100 nM | ≤ 100 nM | 100 to 1000 nM
C=CC(=O)Nc1cnc2c(c1)c(/C=C/c1ccc(Cl)cc1)cn2C [Compound 16, (E)-N-(3-(4-Chlorostyryl)-1-methyl-1H-pyrrolo[2,3-b]pyridin-5-yl)acrylamide] | ≤ 100 nM | 100 to 1000 nM | ≤ 100 nM
C=CC(=O)Nc1ccc2c(c1)c(/C=C/C1CCC(F)(F)CC1)cn2C [Compound 21, (E)-N-(3-(2-(4,4-Difluorocyclohexyl)vinyl)-1-methyl-1H-indol-5-yl)acrylamide] | 100 to 1000 nM | ≤ 100 nM | 100 to 1000 nM
C=CC(=O)Nc1ccc2c(c1)c(/C=C/c1ccc(Cl)cc1)nn2C [Compound 2, (E)-N-(3-(4-Chlorostyryl)-1-methyl-1H-indazol-5-yl)acrylamide] | ≤ 100 nM | 100 to 1000 nM | ≤ 100 nM
C=CC(=O)Nc1ccc2c(c1)c(/C=C/c1ccc(Cl)cc1)cn2C [Compound 22, (E)-N-(3-(4-Chlorostyryl)-1-methyl-1H-indol-5-yl)acrylamide] | 100 to 1000 nM | 100 to 1000 nM | 100 to 1000 nM
C=CC(=O)Nc1ccc2c(c1)c(/C=C/C1CCC(F)(F)CC1)nn2C [Compound 1, (E)-N-(3-(2-(4,4-Difluorocyclohexyl)vinyl)-1-methyl-1H-indazol-5-yl)acrylamide] | ≤ 100 nM | ≤ 100 nM | 100 to 1000 nM
C=CC(=O)Nc1cnc2c(c1)c(/C=C/c1ccc(Cl)cc1)cn2CC [Compound 18, (E)-N-(3-(4-Chlorostyryl)-1-ethyl-1H-pyrrolo[2,3-b]pyridin-5-yl)acrylamide] | ≤ 100 nM | 1000 to 10000 nM | ≤ 100 nM
